# Earlier results in patent US20200281877A1, “METHOD FOR PREVENTION AND TREATMENT OF ACNE, ECZEMA, PSORIASIS, AND RELATED DERMATOLOGICAL CONDITIONS WITH COMPOSITION COMPRISING A SPHINGOLIPID AND SULPHUR COMPOUNDS” (priority 2018, published 2020).
# Tested on: SA_SCD (sphingolipid ceramide N-deacylase)
smiles,measurement,setting,value
[Zn+2] [bivalent zinc (Zn^2+)],hydrolytic activity of SA_SCD,optimal pH 6.0,strongly inhibited
same,synthetic activity of SA_SCD,optimal pH 7.5,strongly inhibited
